Legend:
[1] = target: MDM2 (Homo sapiens, UniProt Q00987); test: Competitive fluorescence polarization assay for MDM2; assay type: binding; settings: competitive FP assay, MDM2; for IC50: read-out: IC50 (MDM2); for Ki: read-out: Ki (MDM2)
Protocol: Dilute 1 mM (in 100% DMSO) of FAM labeled linear peptide with DMSO to 100 μM (dilution 1:10). Then, dilute from 100 μM to 10 μM with water (dilution 1:10) and then dilute with FP buffer from 10 μM to 40 nM (dilution 1:250). This is the working solution which will be a 10 nM concentration in well (dilution 1:4). […] Then, dilute from 5 mM to 500 μM with H2O (dilution 1:10) and then dilute with FP buffer from 500 μM to 20 μM (dilution 1:25).
Dilute 1 mM (in 100% DMSO) of FAM labeled linear peptide with DMSO to 100 μM (dilution 1:10). Then, dilute from 100 μM to 10 μM with water (dilution 1:10) and then dilute with FP buffer from 10 μM to 40 nM (dilution 1:250). This is the working solution which will be a 10 nM concentration in well (dilution 1:4). […] Dilute 10 mM (in 100% DMSO) with DMSO to 5 mM (dilution 1:2). Then, dilute from 5 mM to 500 μM with H2O (dilution 1:10) and then dilute with FP buffer from 500 μM to 20 μM (dilution 1:25). […] Transfer 10 μl of serial diluted unlabeled peptides to each well which is filled with 20 μl of 300 nM of protein. • 7. Add 10 μl of 10 nM (4×) of FAM labeled peptide into each well and incubate for 3 hr to read.

[2] = target: T1, MDMX (Homo sapiens, UniProt O15151); test: Competitive fluorescence polarization assay for MDMX; assay type: binding; settings: competitive FP assay; for IC50: read-out: IC50 (MDMX); for Ki: read-out: Ki (MDMX)
T1 sequence (O15151 1-125): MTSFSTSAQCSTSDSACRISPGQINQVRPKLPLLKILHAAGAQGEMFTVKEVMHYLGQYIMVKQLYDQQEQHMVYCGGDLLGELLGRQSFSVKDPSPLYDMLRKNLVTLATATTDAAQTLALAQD

[3] = tested on: Caspase 3; test: Caspase 3 detection assay in SJSA1 cells; assay type: cell-based; settings: 48 h, Caspase 3 activation over DMSO-treated cells; for caspase 0.3 uM: 0.3 uM peptide; for caspase 3 uM: 3 uM peptide; for caspase 10 uM: 10 uM peptide; for caspase 30 uM: 30 uM peptide
[4] = tested on: SJSA-1 cells; test: Cell lysis by peptidomimetic macrocycles (LDH release); assay type: cell-based; settings: 1 h at 37C
Protocol: On the day of the assay, media was exchanged with RPMI 1% FBS media, 90 uL of media per well.
10 mM stock solutions of the peptidomimetic macrocycles were prepared in 100% DMSO.
The negative control (non-lytic) sample was 0.5% DMSO alone and positive control (lytic) samples include 10 uM Melittin and 1% Triton X-100.
Cell plates were incubated for 1 hour at 37C. After the 1 hour incubation, the morphology of the cells is examined by microscope and then the plates were centrifuged at 1200 rpm for 5 minutes at room temperature. 40 uL of supernatant for each peptidomimetic macrocycle and control sample is transferred to clear assay plates.

Sequence of MDM2 (Q00987 1-125): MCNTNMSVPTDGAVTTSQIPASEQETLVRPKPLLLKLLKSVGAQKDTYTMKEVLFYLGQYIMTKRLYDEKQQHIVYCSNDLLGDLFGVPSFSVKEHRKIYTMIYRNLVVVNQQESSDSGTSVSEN

SMILES	IC50 [1] [nM]	Ki [1] [nM]	IC50 [2] [nM]	Ki [2] [nM]	caspase 0.3 uM [3]	caspase 3 uM [3]	caspase 10 uM [3]	caspase 30 uM [3]	6.25 uM % Lysed cells (1 h LDH) [4] [%]	25 uM % Lysed cells (1 h LDH) [4] [%]	50 uM % Lysed cells (1 h LDH) [4] [%]
CC[C@H](C)[C@H](NC(=O)[C@H](C)NC(=O)[C@H](C)NC(=O)[C@]1(C)CCCC=CCCCCCC[C@@](C)(NC(=O)[C@H](Cc2ccccc2)NC(=O)[C@@H](NC(=O)[C@H](CC(C)C)NC(C)=O)[C@@H](C)O)C(=O)N[C@@H](C)C(=O)N[C@@H](Cc2ccc(O)cc2)C(=O)N[C@@H](Cc2c[nH]c3ccccc23)C(=O)N[C@@H](C)C(=O)N[C@@H](CCC(N)=O)C(=O)N[C@@H](CC(C)C)C(=O)N1)C(=O)N[C@@H](C)C(N)=O (single isomer, unassigned) [compound 65]	10 to 100	< 10	100 to 1000	10 to 100	1	6	28	34	0	0	2
CC[C@H](C)[C@H](NC(=O)[C@H](C)NC(=O)[C@H](C)NC(=O)[C@]1(C)CCCC=CCCCCCC[C@@](C)(NC(=O)[C@H](Cc2ccccc2)NC(=O)[C@@H](NC(=O)[C@H](CC(C)C)NC(C)=O)[C@@H](C)O)C(=O)N[C@@H](C)C(=O)N[C@@H](Cc2ccc(O)cc2)C(=O)N[C@@H](Cc2c[nH]c3ccccc23)C(=O)N[C@@H](C)C(=O)N[C@@H](C)C(=O)N[C@@H](CC(C)C)C(=O)N1)C(=O)N[C@@H](C(N)=O)C(C)C (single isomer, unassigned) [compound 77]	10 to 100	< 10	100 to 1000	10 to 100	1	2	19	23	−2	1	−1
CCCC[C@H](NC(=O)[C@H](C)NC(=O)[C@H](C)NC(=O)[C@]1(C)CCCC=CCCCCCC[C@@](C)(NC(=O)[C@H](Cc2ccccc2)NC(=O)[C@@H](NC(=O)[C@H](CC(C)C)NC(C)=O)[C@@H](C)O)C(=O)N[C@@H](C)C(=O)N[C@@H](Cc2ccc(O)cc2)C(=O)N[C@@H](Cc2c[nH]c3ccccc23)C(=O)N[C@@H](C)C(=O)N[C@@H](C)C(=O)N[C@@H](CC(C)C)C(=O)N1)C(=O)N[C@@H](C(N)=O)C(C)C (single isomer, unassigned) [compound 80]	10 to 100	< 10	100 to 1000	10 to 100	1	2	13	20	0	1	5
CC(=O)N[C@@H](CC(C)C)C(=O)N[C@H](C(=O)N[C@@H](Cc1ccccc1)C(=O)N[C@]1(C)CCCCCCC=CCCC[C@@](C)(C(=O)N[C@@H](CO)C(=O)N[C@@H](CC(C)C)C(=O)N[C@@H](C)C(N)=O)NC(=O)[C@H](CC(C)C)NC(=O)[C@H](CCC(N)=O)NC(=O)[C@H](C)NC(=O)[C@H](Cc2c[nH]c3ccccc23)NC(=O)[C@H](Cc2ccc(O)cc2)NC(=O)[C@H](C)NC1=O)[C@@H](C)O (single isomer, unassigned) [compound 118]	< 10	< 10	100 to 1000	10 to 100	1	2	18	27	4	2	4
CC(=O)N[C@@H](CC(C)C)C(=O)N[C@H](C(=O)N[C@@H](Cc1ccccc1)C(=O)N[C@]1(C)CCCCCCC=CCCC[C@@](C)(C(=O)N[C@@H](CO)C(=O)N[C@@H](Cc2c[nH]c3ccccc23)C(=O)N[C@@H](C)C(N)=O)NC(=O)[C@H](CC(C)C)NC(=O)[C@H](CCC(N)=O)NC(=O)[C@H](C)NC(=O)[C@H](Cc2c[nH]c3ccccc23)NC(=O)[C@H](Cc2ccc(O)cc2)NC(=O)[C@H](C)NC1=O)[C@@H](C)O (single isomer, unassigned) [compound 120]	10 to 100	< 10	100 to 1000	10 to 100	2	11	20	30	0	0	6
CC(=O)N[C@@H](CC(C)C)C(=O)N[C@H](C(=O)N[C@@H](Cc1ccccc1)C(=O)N[C@]1(C)CCCCCCC=CCCC[C@@](C)(C(=O)N[C@@H](CO)C(=O)N[C@H](C(=O)N[C@@H](C)C(N)=O)C(C)C)NC(=O)[C@H](CC(C)C)NC(=O)[C@H](CCC(N)=O)NC(=O)[C@H](C)NC(=O)[C@H](Cc2c[nH]c3ccccc23)NC(=O)[C@H](Cc2ccc(O)cc2)NC(=O)[C@H](C(C)C)NC1=O)[C@@H](C)O (single isomer, unassigned) [compound 139]	< 10	< 10	100 to 1000	10 to 100	1	2	9	18	−2	−1	−1
CC(=O)N[C@@H](CC(C)C)C(=O)N[C@H](C(=O)N[C@@H](Cc1ccccc1)C(=O)N[C@]1(C)CCCCCCC=CCCC[C@@](C)(C(=O)N[C@@H](CO)C(=O)N[C@H](C(=O)N[C@@H](CO)C(N)=O)C(C)C)NC(=O)[C@H](CC(C)C)NC(=O)[C@H](CCC(N)=O)NC(=O)[C@H](C)NC(=O)[C@H](Cc2c[nH]c3ccccc23)NC(=O)[C@H](Cc2ccc(O)cc2)NC(=O)[C@H](C(C)C)NC1=O)[C@@H](C)O (single isomer, unassigned) [compound 142]	< 10	< 10	10 to 100	10 to 100	1	2	15	20	1	1	3

Now from value to compound, other results behind:

IC50 [1] [nM]	Ki [1] [nM]	IC50 [2] [nM]	Ki [2] [nM]	SMILES	caspase 0.3 uM [3]	caspase 3 uM [3]	caspase 10 uM [3]	caspase 30 uM [3]	6.25 uM % Lysed cells (1 h LDH) [4] [%]	25 uM % Lysed cells (1 h LDH) [4] [%]	50 uM % Lysed cells (1 h LDH) [4] [%]
< 10	< 10	100 to 1000	10 to 100	CC(=O)N[C@@H](CC(C)C)C(=O)N[C@H](C(=O)N[C@@H](Cc1ccccc1)C(=O)N[C@]1(C)CCCCCCC=CCCC[C@@](C)(C(=O)N[C@@H](CO)C(=O)N[C@@H](C)C(=O)N[C@@H](CO)C(N)=O)NC(=O)[C@H](CC(C)C)NC(=O)[C@H](CCC(N)=O)NC(=O)[C@H](C)NC(=O)[C@H](Cc2c[nH]c3ccccc23)NC(=O)[C@H](Cc2ccc(O)cc2)NC(=O)[C@H](C(C)C)NC1=O)[C@@H](C)O (single isomer, unassigned) [compound 144]	1	4	10	16	1	−1	2
< 10	< 10	100 to 1000	10 to 100	CC(=O)N[C@@H](CC(C)C)C(=O)N[C@H](C(=O)N[C@@H](Cc1ccc(F)c(F)c1)C(=O)N[C@]1(C)CCCCCCC=CCCC[C@@](C)(C(=O)N[C@@H](CO)C(=O)N[C@@H](C)C(=O)N[C@@H](C)C(N)=O)NC(=O)[C@H](CC(C)C)NC(=O)[C@H](CCC(N)=O)NC(=O)[C@H](C)NC(=O)[C@H](Cc2c[nH]c3ccccc23)NC(=O)[C@H](Cc2ccc(O)cc2)NC(=O)[C@H](CCC(=O)O)NC1=O)[C@@H](C)O (single isomer, unassigned) [compound 158]	1		5	16.33	0	−2	
< 10	< 10	100 to 1000	10 to 100	CC[C@H](C)[C@H](NC(=O)[C@H](C)NC(=O)[C@H](C)NC(=O)[C@]1(C)CCCC=CCCCCCC[C@@](C)(NC(=O)[C@H](Cc2ccccc2)NC(=O)[C@@H](NC(=O)[C@H](CCC(=O)O)NC(C)=O)[C@@H](C)O)C(=O)N[C@@H](CCC(=O)O)C(=O)N[C@@H](Cc2c[nH]cn2)C(=O)N[C@@H](Cc2c[nH]c3ccccc23)C(=O)N[C@@H](C)C(=O)N[C@@H](CCC(N)=O)C(=O)N[C@@H](CC(C)C)C(=O)N1)C(=O)N[C@H](C)C(N)=O (single isomer, unassigned) [compound 175]	1	5	12	21	3	1	0
10 to 100	< 10	100 to 1000	10 to 100	CC[C@H](C)[C@H](NC(=O)[C@H](C)NC(=O)[C@H](C)NC(=O)[C@]1(C)CCCC=CCCCCCC[C@@](C)(NC(=O)[C@H](Cc2ccccc2)NC(=O)[C@@H](NC(=O)[C@H](CC(C)C)NC(C)=O)[C@@H](C)O)C(=O)N[C@@H](C)C(=O)N[C@@H](Cc2ccc(O)cc2)C(=O)N[C@@H](Cc2c[nH]c3ccccc23)C(=O)N[C@@H](C)C(=O)N[C@@H](C)C(=O)N[C@@H](CC(C)C)C(=O)N1)C(=O)N[C@H](C)C(N)=O (single isomer, unassigned) [compound 203]	1	3	12	10	0	2	2

From US8927500B2, “Peptidomimetic macrocycles” (Aileron Therapeutics, Inc., priority 2012, dated 2015)
